In data set [1] the test system is MDA-MB-468 cells. To be noted: MDA-MB-468 with H-CAM blocking of CD44, p=0.065.
Procedure: Breast cancer MDA-MB-468 cells were maintained in Dulbecco's modified eagle medium supplemented with 10% fetal bovine serum (Hyclone Laboratory Inc., Logan, Utah). Cells were plated in white 96-well flat-bottomed plates at the concentration of 5,000 cells/well in 90 μL of growth medium. […] Hanks' solution and 10% trichloroacetic acid (TCA) were used as negative and positive control, respectively. The medium was refreshed 8 h after treatment. After 72 h post-treatment, resazurin blue (5 μM) was added and the resorufin product was measured with a fluorophotometer using an excitation wavelength of 550 nm and an emission wavelength of 590 nm.
The test system of data set [2] is MDA-MB-468 cells. To be noted: 10 μM.
Procedure: Breast cancer cells, MDA-MB-468, were seeded in a 12-well plate at the concentration of 50,000 cells/well in 1 mL of growth medium. After 12 h incubation, 10 μL of human anti-CD44 antibody was added to each well.
Data set [3] concerns 4T1.2neu breast cancer. The experiment in a line: Animal survival and tumor suppression study. Particulars: for median survival time: 10 mg/kg equivalent rapamycin once per week for 3 weeks, free rapamycin i.p., HA-L-Rapa s.c., control 17 days.
For data set [4] the following is noted: Stak (US 20110201639 A1) for tacrolimus; cited from earlier work.
For data set [5] the following is noted: in vivo; cited from earlier work.
A short description of data set [6]: Pharmacokinetics study in rats. The format is in vivo, Sprague-Dawley rats. As to the method: Whole blood was withdrawn (100 μL) from the tail vein at 0 min, 5 min, 30 min, 1 h, 2 h, 4 h, 6 h, 12 h, 24 h and 48 h after dosing and placed in heparinized tubes (BD Vacutainer® Lithium Heparin 37 USP unit, BD Franklin Lakes, N.J.). The whole blood was centrifuged at 15,000×g for 10 min, and the plasma was frozen at −80° C. until analyzed. The animal use statement was approved by the University of Kansas Institutional Animal Care and Use Committee. Plasma samples and stander curves were prepared using a procedure reported previously.

Data set [7] can be described thus: Tissue distribution in tumor-bearing mice. The format is in vivo, BALB/c mice. Particulars: for concentration at 12 h: female, BALB/c, mouse, intraperitoneal, 10 mg/kg. As for the experimental part:
Drug tissue distribution was determined in female BALB/c mice (n=5). Tissue samples (50 mg) in 500 μL PBS were homogenized using a Tissue Tearor (BioSpec Products, Inc., Bartivesville, Okla.). The homogenized tissue was mixed with 250 μL ZnSO4 and 500 μL methanol. The mixture solution was centrifuged and the supernatant was analyzed by LC/MS.
In the tissue distribution study, BLAB/c mice were administered the drugs 12 h before being euthanized. Major organs (liver, kidneys, hear, spleen, lungs, brain, muscle), tumor and lymph nodes were excised and lightly washed with PBS. The organs were stored at −80° C. until analyzed by LC/MS.

The conditions of data set [8]: i.v., rats, own previous studies; cited from earlier work.
For data set [9] the following is noted: mice, 2 mg/kg; cited from earlier work.
The conditions of data set [10]: cited from earlier work.
Where [11] appears, read: female, Sprague-Dawley, rat, plasma, ip, 10 mg/kg.

A word on the AUC(0-inf): it is total exposure, with the tail of the curve extrapolated. As usually defined, the Cmax is the peak of the concentration-time curve. As a reminder, the half-life is the time in which the quantity being followed falls by half. By mortality is commonly meant the share of the test organisms that died.

As to “HA-Rapamycin-42-(3′-amino-4′-methoxy)benzoate [HA-L-Rapa]”, the “cell viability compared to the free drug” value in data set [1] is “no significant difference”. The “rapamycin uptake compared to the free drug” value in data set [2] (CD44 blocked with H-CAM, p=0.13) is “no difference”. The “drug uptake compared to free rapamycin” value in data set [2] (CD44 positive cells, p=0.012) is 3.2 times. For the same compound, in data set [3] (10 mg/kg equivalent rapamycin), the “tumor volume on day 20 compared with the control group” value was “significant decrease”. The median survival time in [3] came out at 22 days. Also, in [3] (4T1.2neu model, n=5), the “lung metastases observed at necropsy (animals of group)” value was 1/5. Also, the “survival compared with control” value in data set [3] (BALB/c mice with 4T1.2neu breast cancer) is “significantly longer survival”. Further, in [3] (mammary carcinoma bearing mice), the “incidence of ulcerated tumor” value is “diminished the incidence of ulcerated tumor” and the “tumor growth compared to the non-treatment group” value is listed as “significantly inhibited tumor growth”.
As to `C=CC[C@@H]1/C=C(\C)C[C@H](C)C[C@H](OC)[C@H]2O[C@@](O)(C(=O)C(=O)N3CCCC[C@H]3C(=O)O[C@H](/C(C)=C/[C@@H]3CC[C@@H](O)[C@H](OC)C3)[C@H](C)[C@@H](O)CC1=O)[C@H](C)C[C@@H]2OC` [tacrolimus], the “stability at alkaline pH conditions” value in data set [4] is recorded as “stable at alkaline pH conditions for over a week”.
As for hyaluronic acid, the turnover half-life in data set [5] is 12 to 72 h.
`CO[C@H]1C[C@@H]2CC[C@@H](C)[C@@](O)(O2)C(=O)C(=O)N2CCCC[C@H]2C(=O)O[C@H]([C@H](C)C[C@@H]2CC[C@@H](O)[C@H](OC)C2)CC(=O)[C@H](C)/C=C(\C)[C@@H](O)[C@@H](OC)C(=O)[C@H](C)C[C@H](C)/C=C/C=C/C=C/1C` [rapamycin] yielded an AUC(0-inf) in data set [6] (setting [11]) of 2360 ± 460 ng·h/mL. For the same compound, the concentration in [6] (setting [11]) peaked (Cmax) at 173 ± 69.1 ng/mL. In [6] (setting [11]), this compound showed a half-life of 10.4 ± 3.76 h. Further, the Vd in data set [6] (rats, free rapamycin i.p., HA-L-Rapa s.c., 10 mg/kg equivalent rapamycin, Mean ± SD, n=3) is 37.68 ± 15.49 L/kg. The CI in data set [6] (rats, free rapamycin i.p., HA-L-Rapa s.c., Mean ± SD, n=3) is 70.5 ± 15.8 mL/min/kg. The concentration at 12 h in data set [7] (brain) is 108 ± 37.4 ng/g; in [7] (heart) it was 441 ± 81.6 ng/g; in [7] (kidneys), 469 ± 27.3 ng/g; in [7] (liver), 379 ± 40.6 ng/g; in data set [7] (lungs), 618 ± 299 ng/g; in [7] (lymph nodes), 705 ± 116 ng/g. Further, the concentration at 12 h is 316 ± 154 ng/g in [7] (muscle) and 183 ± 66.5 ng/g in data set [7] (spleen). In data set [7] (mice, 12 h post 10 mg/kg equivalent rapamycin, i.p. (free rapamycin), s.c. (HA-L-Rapa), Mean ± SD, n=5), the Mean concentration of rapamycin in Tumor was determined as 1240 ± 256 ng/g. Also, in data set [8], the mortality was 40%. The “skin finding after subcutaneous administration” value in data set [9] is “skin ulceration”. Also, the “findings after i.v. administration” value in data set [10] was “injury (swelling and focal lesion) at the injection site, lymphoid atrophy and periarterial edema in the heart, liver”. The “stability at alkaline pH conditions” value in [4] is on record as “degrade rapamycin rapidly in hours or less”. For the same compound, in [3], the median survival time stood at 15 days.

Source of the values: patent US20160279108A1, “TARGETED MTOR INHIBITORS” (UNIVERSITY OF KANSAS, priority 2015, published 2016).
